# Test results from PubChem BioAssay (NCI).
#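 A five-concentration, 48-hour dose response in 96-well plates underlies each endpoint, interpolated linearly between surrounding concentrations. TGI is the concentration that stops growth completely.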
# What was measured:
# Assay in all cases: NCI tumour cell line growth inhibition, 48 h
# RXF 393 renal = system: RXF 393 renal
# P388/ADR leukemia = system: P388/ADR leukemia
# SN12K1 renal = system: SN12K1 renal
# HCT-116 colon = system: HCT-116 colon
# A549 NSCLC = system: A549 NSCLC
# M19-MEL melanoma = system: M19-MEL melanoma
# HOP-62 NSCLC = system: HOP-62 NSCLC
# OVCAR-8 ovarian = system: OVCAR-8 ovarian
# KM20L2 colon = system: KM20L2 colon
# KM12 colon = system: KM12 colon
# OVCAR-3 ovarian = system: OVCAR-3 ovarian
# DMS 114 small cell lung = system: DMS 114 small cell lung
# COLO 205 colon = system: COLO 205 colon
# NCI-H522 lung = system: NCI-H522 lung
# UACC-62 melanoma = system: UACC-62 melanoma
# MALME-3M melanoma = system: MALME-3M melanoma
# NCI-H460 lung = system: NCI-H460 lung
# IGROV1 ovarian = system: IGROV1 ovarian
# DMS 273 small cell lung = system: DMS 273 small cell lung
# HCC-2998 colon = system: HCC-2998 colon
# SNB-78 CNS = system: SNB-78 CNS
# HOP-18 NSCLC = system: HOP-18 NSCLC
# SK-MEL-5 melanoma = system: SK-MEL-5 melanoma
# HCT-15 colon = system: HCT-15 colon
# SK-MEL-2 melanoma = system: SK-MEL-2 melanoma
# SK-OV-3 ovarian = system: SK-OV-3 ovarian
# SF-268 CNS = system: SF-268 CNS
# EKVX NSCLC = system: EKVX NSCLC
# UO-31 renal = system: UO-31 renal
# NCI-H23 lung = system: NCI-H23 lung
# CAKI-1 renal = system: CAKI-1 renal
# P388 leukemia = system: P388 leukemia
# DLD-1 colon = system: DLD-1 colon
# HL-60(TB) leukemia = system: HL-60(TB) leukemia
# RPMI-8226 leukemia = system: RPMI-8226 leukemia
# LOX IMVI melanoma = system: LOX IMVI melanoma
# SN12C renal = system: SN12C renal
# SK-MEL-28 melanoma = system: SK-MEL-28 melanoma
# OVCAR-5 ovarian = system: OVCAR-5 ovarian
# SW-620 colon = system: SW-620 colon
# MOLT-4 leukemia = system: MOLT-4 leukemia
# NCI-H226 lung = system: NCI-H226 lung
# HOP-92 NSCLC = system: HOP-92 NSCLC
# SNB-19 CNS = system: SNB-19 CNS
# K-562 leukemia = system: K-562 leukemia
# HT29 colon = system: HT29 colon
# OVCAR-4 ovarian = system: OVCAR-4 ovarian
# A498 renal = system: A498 renal
# SNB-75 CNS = system: SNB-75 CNS
# NCI/ADR-RES ovarian = system: NCI/ADR-RES ovarian
# SF-539 CNS = system: SF-539 CNS
# SF-295 CNS = system: SF-295 CNS
# U251 CNS = system: U251 CNS
# CCRF-CEM leukemia = system: CCRF-CEM leukemia
# MCF7 breast = system: MCF7 breast
# UACC-257 melanoma = system: UACC-257 melanoma
# XF 498 CNS = system: XF 498 CNS
smiles,measurement,setting,value
COc1cccc(-c2nc3c(C(=O)NCCN(C)C)cccc3[nH]2)c1,TGI,RXF 393 renal,56.7 µM
same,TGI,P388/ADR leukemia,41.9 µM
same,TGI,SN12K1 renal,30.7 µM
same,TGI,HCT-116 colon,44.2 µM
same,TGI,A549 NSCLC,46.2 µM
same,TGI,M19-MEL melanoma,30.3 µM
same,TGI,HOP-62 NSCLC,33.2 µM
same,TGI,OVCAR-8 ovarian,> 58.4 µM
same,TGI,KM20L2 colon,39 µM
same,TGI,KM12 colon,> 72 µM
same,TGI,OVCAR-3 ovarian,> 75.9 µM
same,TGI,DMS 114 small cell lung,30.7 µM
same,TGI,COLO 205 colon,23.1 µM
same,TGI,NCI-H522 lung,34 µM
same,TGI,UACC-62 melanoma,31.8 µM
same,TGI,MALME-3M melanoma,27.6 µM
same,TGI,NCI-H460 lung,34.6 µM
same,TGI,IGROV1 ovarian,53.9 µM
same,TGI,DMS 273 small cell lung,39.7 µM
same,TGI,HCC-2998 colon,30.8 µM
same,TGI,SNB-78 CNS,> 100 µM
same,TGI,HOP-18 NSCLC,62.6 µM
same,TGI,SK-MEL-5 melanoma,31.5 µM
same,TGI,HCT-15 colon,41.6 µM
same,TGI,SK-MEL-2 melanoma,34.4 µM
same,TGI,SK-OV-3 ovarian,69.5 µM
same,TGI,SF-268 CNS,> 41.7 µM
same,TGI,EKVX NSCLC,97.5 µM
same,TGI,UO-31 renal,29.1 µM
same,TGI,NCI-H23 lung,50.8 µM
same,TGI,CAKI-1 renal,> 96 µM
same,TGI,P388 leukemia,22.2 µM
same,TGI,DLD-1 colon,63.1 µM
same,TGI,HL-60(TB) leukemia,41.2 µM
same,TGI,RPMI-8226 leukemia,46.3 µM
same,TGI,LOX IMVI melanoma,34.9 µM
same,TGI,SN12C renal,> 70.6 µM
same,TGI,SK-MEL-28 melanoma,31.4 µM
same,TGI,OVCAR-5 ovarian,42.7 µM
same,TGI,SW-620 colon,> 54.6 µM
same,TGI,MOLT-4 leukemia,24.4 µM
same,TGI,NCI-H226 lung,35.7 µM
same,TGI,HOP-92 NSCLC,46.7 µM
same,TGI,SNB-19 CNS,> 100 µM
same,TGI,K-562 leukemia,> 70.9 µM
same,TGI,HT29 colon,42 µM
same,TGI,OVCAR-4 ovarian,84.6 µM
same,TGI,A498 renal,32.1 µM
same,TGI,SNB-75 CNS,68.1 µM
same,TGI,NCI/ADR-RES ovarian,44.1 µM
same,TGI,SF-539 CNS,41.4 µM
same,TGI,SF-295 CNS,47.6 µM
same,TGI,U251 CNS,> 61.6 µM
same,TGI,CCRF-CEM leukemia,> 81.6 µM
same,TGI,MCF7 breast,> 100 µM
same,TGI,UACC-257 melanoma,31.3 µM
CC(O)C(O)C(N)CC=O (stereo not drawn),TGI,RXF 393 renal,> 500 µM
same,TGI,P388/ADR leukemia,> 500 µM
same,TGI,SN12K1 renal,> 500 µM
same,TGI,HCT-116 colon,> 500 µM
same,TGI,A549 NSCLC,> 500 µM
same,TGI,M19-MEL melanoma,> 500 µM
same,TGI,XF 498 CNS,> 414 µM
same,TGI,HOP-62 NSCLC,> 500 µM
same,TGI,OVCAR-8 ovarian,> 500 µM
same,TGI,KM20L2 colon,> 500 µM
same,TGI,KM12 colon,> 500 µM
same,TGI,OVCAR-3 ovarian,> 500 µM
same,TGI,DMS 114 small cell lung,> 500 µM
same,TGI,COLO 205 colon,> 500 µM
same,TGI,NCI-H522 lung,> 500 µM
same,TGI,UACC-62 melanoma,> 500 µM
same,TGI,MALME-3M melanoma,> 500 µM
same,TGI,NCI-H460 lung,> 500 µM
same,TGI,IGROV1 ovarian,> 500 µM
same,TGI,DMS 273 small cell lung,> 500 µM
same,TGI,HCC-2998 colon,> 500 µM
same,TGI,SNB-78 CNS,> 500 µM
same,TGI,HOP-18 NSCLC,> 500 µM
same,TGI,SK-MEL-5 melanoma,> 500 µM
same,TGI,HCT-15 colon,> 500 µM
same,TGI,SK-MEL-2 melanoma,> 500 µM
same,TGI,SK-OV-3 ovarian,> 500 µM
same,TGI,SF-268 CNS,> 500 µM
same,TGI,EKVX NSCLC,> 500 µM
same,TGI,UO-31 renal,> 500 µM
same,TGI,NCI-H23 lung,> 500 µM
same,TGI,CAKI-1 renal,> 500 µM
same,TGI,P388 leukemia,> 500 µM
same,TGI,DLD-1 colon,> 500 µM
same,TGI,HL-60(TB) leukemia,> 500 µM
same,TGI,RPMI-8226 leukemia,> 500 µM
same,TGI,LOX IMVI melanoma,> 500 µM
same,TGI,SN12C renal,> 500 µM
same,TGI,SK-MEL-28 melanoma,> 500 µM
same,TGI,OVCAR-5 ovarian,> 500 µM
same,TGI,SW-620 colon,> 185 µM
same,TGI,MOLT-4 leukemia,> 500 µM
same,TGI,NCI-H226 lung,> 500 µM
same,TGI,HOP-92 NSCLC,> 500 µM
same,TGI,SNB-19 CNS,> 500 µM
same,TGI,K-562 leukemia,> 500 µM
same,TGI,HT29 colon,> 500 µM
same,TGI,OVCAR-4 ovarian,> 500 µM
same,TGI,A498 renal,> 50 µM
same,TGI,SNB-75 CNS,> 500 µM
same,TGI,NCI/ADR-RES ovarian,> 500 µM
same,TGI,SF-539 CNS,> 500 µM
same,TGI,SF-295 CNS,> 500 µM
same,TGI,U251 CNS,> 500 µM
same,TGI,CCRF-CEM leukemia,> 500 µM
same,TGI,MCF7 breast,> 500 µM
same,TGI,UACC-257 melanoma,> 500 µM
